Measured values: ChEMBL document CHEMBL5143642, “Thiosemicarbazone derivatives: Evaluation as cruzipain inhibitors and molecular modeling study of complexes with cruzain” (Bioorg Med Chem, 2022)

Molecular target: Cruzipain (Trypanosoma cruzi, UniProt P25779)
Assay: Inhibition of epimastigote form of Trypanosoma cruzi Tulahuen 2 cruzain assessed as reduction in 7-amino-4-methylcoumarin release incubated for 20 mins folllowed by Z-FR-AMC substrate addition and measured up to 45 mins by fluorometric assay

Chain of Cruzipain (P25779 whole entry): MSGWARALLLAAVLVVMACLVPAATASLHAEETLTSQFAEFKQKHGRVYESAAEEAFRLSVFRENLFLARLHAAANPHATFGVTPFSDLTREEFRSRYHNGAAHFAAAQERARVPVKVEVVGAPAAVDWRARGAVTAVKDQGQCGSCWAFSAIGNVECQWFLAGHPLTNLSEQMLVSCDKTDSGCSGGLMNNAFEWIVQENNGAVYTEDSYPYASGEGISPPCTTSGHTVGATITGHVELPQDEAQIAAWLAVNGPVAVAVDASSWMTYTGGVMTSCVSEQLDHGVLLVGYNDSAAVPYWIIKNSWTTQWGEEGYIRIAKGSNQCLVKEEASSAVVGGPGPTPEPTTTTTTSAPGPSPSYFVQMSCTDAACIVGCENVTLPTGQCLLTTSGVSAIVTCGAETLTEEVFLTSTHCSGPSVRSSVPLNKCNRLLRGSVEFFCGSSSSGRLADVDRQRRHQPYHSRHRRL

Row | IC50 [µM] | Compound
1 | 105 | NC(=S)N/N=C/c1cccc(Cl)c1
2 | 0.753 | CC/C(=N\NC(N)=S)c1cccc([N+](=O)[O-])c1
3 | 0.0816 | N/C(S)=N/N=C/c1ccc(Cl)c(Cl)c1
4 | 7.6 | C/C(=N\NC(N)=S)c1ccc([N+](=O)[O-])cc1
5 | 29.9 | C/C(=N\NC(N)=S)c1cccc(Cl)c1
6 | 0.147 | C/C(=N\N=C(\N)S)c1ccc(Cl)c(Cl)c1
7 | 0.0695 | CC/C(=N\N=C(\N)S)c1ccc(Cl)c(Cl)c1
8 | 1470 | COc1cccc(/C(C)=N/N=C(/N)S)c1

Row | Compound | IC50 [µM]
9 | CC/C(=N\N=C(\N)S)c1cccc(Cl)c1 | 23.2
